In patent US4933347A, “Diamidines and bis(imidazolines) for the treatment of and prophylaxis against pneumocystis carinii pneumonia” (University of North Carolina at Chapel Hill, priority 1988, dated 1990):

Assays:
Pneumocystis carinii = test: Treatment of Pneumocystis carinii pneumonia in Sprague-Dawley rats (extent of disease by histologic score); format: in vivo, male Sprague-Dawley rats; settings: for Extent of Disease by Histologic Score: number of animals with score 0.5 / Extent of Disease by Histologic Score: number of animals with score 1 / Extent of Disease by Histologic Score: number of animals with score 2 / Extent of Disease by Histologic Score: number of animals with score 3 / Extent of Disease by Histologic Score: number of animals with score 4: 14 days; for Extent of Disease by Histologic Score: number of animals with score 0.5 / Extent of disease by histologic score (combined): number of animals in scoring group 0.5: 0.5 = <10 cysts found per 2 sections; for Extent of Disease by Histologic Score: number of animals with score 1 / Extent of disease by histologic score (combined): number of animals in scoring group 1: 1 = scattered cysts, <5% of lung involved; for Extent of Disease by Histologic Score: number of animals with score 2 / Extent of disease by histologic score (combined): number of animals in scoring group 2: 2 = scattered cysts; for Extent of Disease by Histologic Score: number of animals with score 2: 5-10% lung involved or small foci of infection; for Extent of Disease by Histologic Score: number of animals with score 3 / Extent of disease by histologic score (combined): number of animals in scoring group 3: 3 = scattered cysts; for Extent of Disease by Histologic Score: number of animals with score 3: 10-50% of lung involved with some intense areas of infection; for Extent of Disease by Histologic Score: number of animals with score 4: 4 = >50% of lung involved with many intense areas of focal infection; for Extent of disease by histologic score (combined): number of animals in scoring group 0.5 / Extent of disease by histologic score (combined): number of animals in scoring group 1 / Extent of disease by histologic score (combined): number of animals in scoring group 2 / Extent of disease by histologic score (combined): number of animals in scoring group 3 / Extent of disease by histologic score (combined): number of animals in scoring group 4: Table XII composite; for Extent of disease by histologic score (combined): number of animals in scoring group 2: 5-10% of lung involved; for Extent of disease by histologic score (combined): number of animals in scoring group 3: 10-50% of lung involved; for Extent of disease by histologic score (combined): number of animals in scoring group 4: 4 = >50% of lung involved
[1] = Toxicity of amidines in rats (standard laboratory procedure); format: in vivo
Description: Compounds having the structure represented by Formula I were synthesized in accordance with the appropriate procedures discussed previously. The reaction schemes shown in Charts I-III specifically identify the methodology used to synthesize the compounds of the respective examples. The compounds which were synthesized are shown in Table IA and the elemental analysis and melting points of the compounds are shown in Table IB. Most of the compounds were tested for toxicity in rats using standard laboratory procedure and the results of that toxicity testing are shown in Table XII. The compounds of Examples 31, 32, and 34 were not synthesized but may be synthesized in the general manner discussed previously.

[2] = dose as in value, else not given in Table XIII (10 mg/kg test dose)

| Compound | Extent of Disease by Histologic Score: number of animals with score 0.5 (Pneumocystis carinii; 5 mg/kg i.v. daily) [animals] | Extent of Disease by Histologic Score: number of animals with score 1 (Pneumocystis carinii; 5 mg/kg i.v. daily) [animals] | Extent of Disease by Histologic Score: number of animals with score 2 (Pneumocystis carinii; 5 mg/kg i.v. daily) [animals] | Extent of Disease by Histologic Score: number of animals with score 3 (Pneumocystis carinii; 5 mg/kg i.v. daily) [animals] | Extent of Disease by Histologic Score: number of animals with score 4 (Pneumocystis carinii; 5 mg/kg i.v. daily) [animals] | Extent of disease by histologic score (combined): number of animals in scoring group 0.5 (Pneumocystis carinii; tested at 5 mg/kg) [animals] | Extent of disease by histologic score (combined): number of animals in scoring group 1 (Pneumocystis carinii; tested at 5 mg/kg) [animals] | Extent of disease by histologic score (combined): number of animals in scoring group 2 (Pneumocystis carinii; tested at 5 mg/kg) [animals] | Extent of disease by histologic score (combined): number of animals in scoring group 3 (Pneumocystis carinii; tested at 5 mg/kg) [animals] | Extent of disease by histologic score (combined): number of animals in scoring group 4 (Pneumocystis carinii; tested at 5 mg/kg) [animals] | Toxicity of amidines: Effect [1, 2] | Extent of Disease by Histologic Score: number of animals with score 0.5 (Pneumocystis carinii; 2.5 mg/kg i.v. daily) [animals] | Extent of Disease by Histologic Score: number of animals with score 1 (Pneumocystis carinii; 2.5 mg/kg i.v. daily) [animals] | Extent of Disease by Histologic Score: number of animals with score 2 (Pneumocystis carinii; 2.5 mg/kg i.v. daily) [animals] | Extent of Disease by Histologic Score: number of animals with score 3 (Pneumocystis carinii; 2.5 mg/kg i.v. daily) [animals] | Extent of Disease by Histologic Score: number of animals with score 4 (Pneumocystis carinii; 2.5 mg/kg i.v. daily) [animals] | Extent of disease by histologic score (combined): number of animals in scoring group 0.5 (Pneumocystis carinii; tested at 2.5 mg/kg) [animals] | Extent of disease by histologic score (combined): number of animals in scoring group 1 (Pneumocystis carinii; tested at 2.5 mg/kg) [animals] | Extent of disease by histologic score (combined): number of animals in scoring group 2 (Pneumocystis carinii; tested at 2.5 mg/kg) [animals] | Extent of disease by histologic score (combined): number of animals in scoring group 3 (Pneumocystis carinii; tested at 2.5 mg/kg) [animals] | further results |
| --- | --- | --- | --- | --- | --- | --- | --- | --- | --- | --- | --- | --- | --- | --- | --- | --- | --- | --- | --- | --- | --- |
| N=C(N)c1ccc(OCCCCCOc2ccc(C(=N)N)cc2[N+](=O)[O-])c([N+](=O)[O-])c1 [Example 13] | 3 | 2 | 3 | 0 | 0 | 0 | 2 | 4 | 2 | 0 | Acute toxicity, death at 10 mg/kg |  |  |  |  |  |  |  |  |  |  |
| N=C(N)c1ccc(OCCCCOc2ccc(C(=N)N)cc2Cl)c(Cl)c1 [Example 24] |  |  |  |  |  |  |  |  |  |  |  | 0 | 1 | 2 | 3 | 2 | 0 | 1 | 2 | 3 | Extent of disease by histologic score (combined): number of animals in scoring group 4 (Pneumocystis carinii; tested at 2.5 mg/kg): 2 animals; Toxicity of amidines: Effect ([1]; rat, in vivo, 2.5 mg/kg): None |
| N=C(N)c1ccc(NCCCNc2ccc(C(=N)N)cc2[N+](=O)[O-])c([N+](=O)[O-])c1 [Example 35] | 0 | 0 | 0 | 2 | 6 | 0 | 0 | 0 | 2 | 6 |  |  |  |  |  |  |  |  |  |  | Toxicity of amidines: Effect ([1]; tested at 5 mg/kg): no toxicity |
| CN1CCN=C1c1ccc(OCCCCCOc2ccc(C3=NCCN3C)cc2)cc1 [Example 42] |  |  |  |  |  |  |  |  |  |  | Acute toxicity at 10 mg/kg and 5 mg/kg | 0 | 0 | 2 | 3 | 3 | 0 | 0 | 2 | 3 | Extent of disease by histologic score (combined): number of animals in scoring group 4 (Pneumocystis carinii; tested at 2.5 mg/kg): 3 animals; Toxicity of amidines: Effect ([1]; rat, in vivo, 2.5 mg/kg): no toxicity |
| N=C(N)c1ccc(NCCCCNc2ccc(C(=N)N)cc2)cc1 [Example 8] |  |  |  |  |  |  |  |  |  |  |  |  |  |  |  |  |  |  |  |  | Extent of Disease by Histologic Score: number of animals with score 0.5 (Pneumocystis carinii; 10 mg/kg i.v. daily): 3 animals; Extent of Disease by Histologic Score: number of animals with score 1 (Pneumocystis carinii; 10 mg/kg i.v. daily): 1 animals; Extent of Disease by Histologic Score: number of animals with score 2 (Pneumocystis carinii; 10 mg/kg i.v. daily): 0 animals; Extent of Disease by Histologic Score: number of animals with score 3 (Pneumocystis carinii; 10 mg/kg i.v. daily): 0 animals; Extent of Disease by Histologic Score: number of animals with score 4 (Pneumocystis carinii; 10 mg/kg i.v. daily): 0 animals; Efficacy in treating PCP compared with pentamidine (Pneumocystis carinii; 10 mg/kg unless otherwise noted): better than or equal to pentamidine; Extent of disease by histologic score (combined): number of animals in scoring group 0.5 (Pneumocystis carinii; 10 mg/kg): 3 animals; Extent of disease by histologic score (combined): number of animals in scoring group 1 (Pneumocystis carinii; 10 mg/kg): 1 animals; Extent of disease by histologic score (combined): number of animals in scoring group 2 (Pneumocystis carinii; 10 mg/kg): 0 animals; Extent of disease by histologic score (combined): number of animals in scoring group 3 (Pneumocystis carinii; 10 mg/kg): 0 animals; Extent of disease by histologic score (combined): number of animals in scoring group 4 (Pneumocystis carinii; 10 mg/kg): 0 animals; Deaths by day 7 ([1]; rat, in vivo): 3 deaths |
| N=C(N)c1ccc(OCCCCCCOc2ccc(C(=N)N)cc2N)c(N)c1 [Example 22] | 0 | 1 | 4 | 3 | 0 | 0 | 1 | 4 | 3 | 0 | Acute toxicity - death at 10 mg/kg |  |  |  |  |  |  |  |  |  | Efficacy in treating PCP compared with pentamidine (Pneumocystis carinii; compound at 5 mg/kg): significantly less effective than the other compounds or pentamidine; Toxicity (words in running text) ([1]; rat, in vivo): toxic |
| N=C(N)c1ccc(OCCCCOc2ccc(C(=N)N)cc2[N+](=O)[O-])c([N+](=O)[O-])c1 [Example 38] |  |  |  |  |  |  |  |  |  |  | Acute toxicity at 10 mg/kg and 5 mg/kg | 0 | 0 | 3 | 1 | 4 | 0 | 0 | 3 | 1 | Extent of disease by histologic score (combined): number of animals in scoring group 4 (Pneumocystis carinii; tested at 2.5 mg/kg): 4 animals; Toxicity of amidines: Effect ([1]; tested at 2.5 mg/kg): no toxicity |
| COc1cc(C2=NCCN2)ccc1OCCCCCOc1ccc(C2=NCCN2)cc1OC [Example 43] | 1 | 3 | 1 | 2 | 0 | 1 | 3 | 1 | 2 | 0 |  |  |  |  |  |  |  |  |  |  | Efficacy in treating PCP compared with control (Pneumocystis carinii; compound at 5 mg/kg): significantly better than the control; Toxicity of amidines: Effect ([1]; rat, in vivo, 5 mg/kg): no toxicity |
| COc1cc(C(=N)N)ccc1OCCCOc1ccc(C(=N)N)cc1OC [Example 6] | 7 | 1 | 0 | 0 | 0 | 7 | 1 | 0 | 0 | 0 |  |  |  |  |  |  |  |  |  |  | Efficacy in treating PCP compared with control (Pneumocystis carinii; compound at 5 mg/kg): significantly better, at one half the dose, than the control; Toxicity of amidines: Effect ([1]; rat, in vivo, 5 mg/kg): None |
